From publication PMC9530963, “A cathelicidin antimicrobial peptide from Hydrophis cyanocinctus inhibits Zika virus infection by downregulating expression of a viral entry factor” (The Journal of Biological Chemistry, 2022)

Key:
[1] = cited from earlier work
Text: Antimicrobial peptides (AMPs), also called host defense peptides, are a group of relatively small cationic peptides. They are an important part of the innate immune system and play an important role in fighting against bacterial infection ([26]). Recently, more and more studies have shown that AMPs can also exert antiviral effects by inhibiting virus adsorption, disrupting virus envelope, and regulating host antiviral immune response ([27], [28], [29]).

PGE2 = PGE2 production in A549 cells (ELISA); type: cell-based, Homo sapiens; details: 24 h, cell supernatant
Protocol: Figure 6 Hc-CATH downregulates AXL via inhibiting COX-2/PGE2/AC/PKA pathway.A, effect of Hc-CATH on COX-2 protein level. A549 cells were incubated with Hc-CATH (1.25, 2.5, or 5 μM) or PBS (solvent of Hc-CATH) at 37 °C for 24 h, COX-2 protein level was examined by Western blot (upper panel) and analyzed by ImageJ (lower panel). B, effect of Hc-CATH on the enzymatic activity of COX-2. Hc-CATH (1.25, 2.5, 5, and 10 μM) or PBS was incubated with COX-2. After incubation at 37 °C for 10 min, the enzymatic activity of COX-2 was detected by enzyme activity inhibitor screening kit. Celecoxib (COX-2 inhibitor, 100 nM) was used as positive control. C, effect of Hc-CATH on PGE2 production. A549 cells were incubated with Hc-CATH (5 μM) at 37 °C. After incubation for 24 h, the level of PGE2 in the cell supernatant was detected by ELISA. D and E, effect of AC (D) and PKA (E) on Hc-CATH-induced AXL downregulation. A549 cells were incubated with forskolin (FSK, agonist of AC, 10 μM) or H89 (inhibitor of PKA, 5 μM) at 37 °C. After incubation for 1 h, the culture media were removed, cells were washed three times with PBS, and fresh culture media were added to cells in the presence of Hc-CATH (5 μM). After incubation for 24 h, AXL protein level was examined by Western blot (upper panel of D and E) and analyzed by ImageJ (lower panel of D and E). ns, not significant, ∗∗p < 0.01, and ∗∗∗p < 0.001. […]

ZIKV = test: Susceptibility of A549 cells to ZIKV (peptide pretreatment); type: cell-based, ZIKV strain PRVABC59; details: 1.25, 2.5, and 5 μM, 2 h before ZIKV MOI = 1; 24 h; Western blot
Protocol: Figure 4 Hc-CATH downregulates AXL in A549 cell.A, schematic diagram of B and C. B, A549 cells were seeded in 24-well plates (5 × 10^4 cells/well) and cultured in DMEM containing 2% FBS. Hc-CATH (1.25, 2.5, and 5 μM) or same volume of PBS (peptide solvent) was added to cells and incubated at 37 °C for 24 h. The level of AXL was tested by Western blot. C, A549 cells were seeded in 8-well cover slip chambers (5 × 10^4 cells/well) and cultured in DMEM containing 2% FBS. Hc-CATH (1.25, 2.5, and 5 μM) or PBS was added to cells and incubated at 37 °C for 24 h. The level of AXL was tested by immunofluorescence staining. The scale bar represents 50 μm. D, schematic diagram of E and G. E and G, A549 cells were seeded in 24-well plates (5 × 10^4 cells/well) and cultured in DMEM containing 2% FBS. Hc-CATH (1.25, 2.5, and 5 μM) or PBS was added to cells and incubated at 37 °C for 2 h. Cells were washed with PBS and incubated with ZIKV (MOI = 1). After incubation at 37 °C for 2 h, cells were washed with PBS and cultured in DMEM containing 2% FBS.
Vero, A549, or U251 cells were incubated with peptide or PBS at 37 °C for 2 h. […]
The effect of Hc-CATH on AXL was further confirmed in A549 and U251 cells. A549 or U251 cells were incubated with Hc-CATH (1.25, 2.5, and 5 μM) or PBS at 37 °C for 24 h, and the level of AXL was detected by WB and IF, respectively. […]

Sequence: KFFKRLLKSVRRAVKKFRKKPRLIGLSTLL [Hc-CATH, cathelicidin antimicrobial peptide identified from the sea snake Hydrophis cyanocinctus]
- cytotoxicity [1]: low cytotoxicity
- stability [1]: high stability
- synthesis of PGE2 (PGE2): significantly reduced the synthesis of PGE2
- susceptibility of A549 cells to ZIKV (NS3 protein) (ZIKV): decreased the susceptibility
